The values that follow come from US6855730B2, “3-methylidenyl-2-indolinone modulators of protein kinase” (Sugen, Inc., priority 1998, dated 2005).

Counter-ions that a name gives are not always drawn.

The target in this test is T1, chimeric receptor containing the EGFR extracellular domain and intracellular HER2 kinase domain (Homo sapiens, UniProt P04626).
T1 construct: fused on or other part: EGFR ectodomain + HER2 intracellular part, ATP-site indolinones: HER2's kinase
T1 sequence (P04626 720-1255 limits assumed, change not shown): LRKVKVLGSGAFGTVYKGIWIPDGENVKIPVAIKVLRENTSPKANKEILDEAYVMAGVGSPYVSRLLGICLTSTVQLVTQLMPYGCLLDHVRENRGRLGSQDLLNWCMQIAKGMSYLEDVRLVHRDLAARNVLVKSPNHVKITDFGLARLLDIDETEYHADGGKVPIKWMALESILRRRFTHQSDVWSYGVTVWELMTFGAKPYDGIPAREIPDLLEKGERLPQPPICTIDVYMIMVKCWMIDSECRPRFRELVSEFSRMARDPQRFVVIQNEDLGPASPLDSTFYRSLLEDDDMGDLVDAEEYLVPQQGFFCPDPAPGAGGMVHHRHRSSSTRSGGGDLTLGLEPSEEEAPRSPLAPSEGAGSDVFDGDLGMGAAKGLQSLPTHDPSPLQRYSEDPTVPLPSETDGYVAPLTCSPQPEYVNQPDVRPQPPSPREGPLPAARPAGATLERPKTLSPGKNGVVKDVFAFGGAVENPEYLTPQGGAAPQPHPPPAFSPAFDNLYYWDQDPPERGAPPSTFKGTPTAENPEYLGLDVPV
As to the kind of experiment: EGF Receptor-HER2 chimeric receptor assay in whole cells (ELISA). It is filed as cell-based. The following applies: read-out: HER-2 kinase IC50. An outline of the steps: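 NIH3T3 cells overexpressing EGFR-extracellular/HER2-kinase chimera, seeded in 0.5% serum for ~40 h, were pretreated with compound (1% final DMSO) 2 h at 37 °C, then stimulated with 100 nM EGF for 5 min. Lysates captured on anti-EGFR plates; phosphotyrosine detected by anti-Ptyr/HRP ELISA at 410 nm as percent inhibition.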
As for `O=C1Nc2ncccc2/C1=C\c1ccc2c(c1)CCO2` [Example 73, 3-(2,3-Dihydrobenzofuran-5-ylmethylene)-1,3-dihydropyrrolo[2,3-b]pyridin-2-one], the IC50 was greater than 50 µM. Next, `COc1c(C(C)C)cc(/C=C2/C(=O)Nc3ncccc32)cc1C(C)C` [Example 74, 3-(3,5-Diisopropyl-4-methoxybenzylidene)-1,3-dihydropyrrolo[2,3-b]pyridin-2-one]: greater than 100 µM; `Cc1cc(CCC(=O)O)c(/C=C2\C(=O)Nc3cc(-c4ccc(F)cc4)ccc32)[nH]1` [Example 107, 3-{2-[6-(4-Fluorophenyl)-2-oxo-1,2-dihydroindol-3-ylidenemethyl]-5-methyl-1H-pyrrol-3-yl}propionic acid]: greater than 100 µM. Next, `CCOC(=O)c1c(C)[nH]c(/C=C2\C(=O)Nc3cc(-c4ccc(F)cc4)ccc32)c1CCC(=O)O` [Example 108, 4-(2-Carboxyethyl)-5-[6-(4-fluorophenyl)-2-oxo-1,2-dihydro-indol-3-ylidenemethyl]-2-methyl-1H-pyrrole-3-carboxylic acid ethyl ester]: greater than 100 µM. Consider `COc1ccccc1-c1ccc2c(c1)NC(=O)/C2=C\c1[nH]c(C)cc1CCC(=O)O` [Example 109, 3-{2-[6-(2-Methoxyphenyl)-2-oxo-1,2-dihydroindol-3-ylidenemethyl]-5-methyl-1H-pyrrol-3-yl}-propionic acid], for which the IC50 is greater than 100 µM.

In the case of `CCOC(=O)c1c(C)[nH]c(/C=C2\C(=O)Nc3cc(-c4ccccc4OC)ccc32)c1CCC(=O)O` [Example 110, 4-(2-Carboxyethyl)-5-[6-(2-methoxyphenyl)-2-oxo-1,2-dihydro-indol-3-ylidenemethyl]-2-methyl-1H-pyrrol-3-yl-carboxylic acid ethyl ester], the IC50 was greater than 100 µM.

In the case of `Cc1cc(CCC(=O)O)c(/C=C2\C(=O)Nc3ccc(Cl)cc32)[nH]1` [Example 111, 3-[2-(5-Chloro-2-oxo-1,2-dihydroindol-3-ylidenemethyl)-5-methyl-1H-pyrrol-3-yl]propionic acid], the IC50 was greater than 100 µM. Next, `Cc1c(/C=C2\C(=O)Nc3ccc(C(=O)O)cc32)[nH]c2ccccc12` [Example 156, 3-(3-Methyl-1H-indol-2-ylmethylene)-2-oxo-2,3-dihydro-1H-indole-5-carboxylic acid (piperidine salt)]: greater than 100 µM.

`O=C1Nc2ccc(Br)cc2/C1=C/c1cc2ccccc2[nH]1` [Example 165, 5-Bromo-3-(1H-indol-2-ylmethylene)-1,3-dihydro-indol-2-one]: the IC50 is greater than 100 µM.

Turning to `Cc1cccc2c1/C(=C/c1cc3ccccc3[nH]1)C(=O)N2` [Example 166, 3-(1H-indol-2-ylmethylene)-4-methyl-1,3-dihydro-indol-2-one], the half-inhibitory concentration (IC50) is greater than 100 µM.
